Source: patent US7235664B2, “Anthranilamides with heteroarylsulfonyl side chain, process of preparation, and use” (Sanofi-Aventis Deutschland GmbH, priority 2001, dated 2007)

Work on `CC[C@H](NC(=O)c1cc(F)ccc1NS(=O)(=O)c1cccc2cccnc12)c1ccccc1` [Example 52, (S)-5-Fluoro-2-(quinoline-8-sulfonylamino)-N-(1-phenylpropyl)-benzamide] yielded a melting point of 163 °C.
